Test results taken from PMC12040169 (PLOS Biology, 2025).

Test: in vitro
Details: human, hela cells, % viability

| Structure (SMILES) | viability at 28.5 h, 10 µM |
| --- | --- |
| O=C(Cc1ccc(Cl)cc1)N1CCc2c([nH]c3ccccc23)C12CCN(Cc1ccc(F)cc1)C2 (stereo not shown) [CBK059453] | 90.6% |
| CC(C)CC(=O)N1CCc2c([nH]c3ccccc23)C12CCN(Cc1ccccc1)C2 (stereo not shown) [CBK059459] | 81.6% |
| CS(=O)(=O)N1CCc2c([nH]c3ccccc23)C12CCN(Cc1ccccc1)C2 (stereo not shown) [CBK059460] | 102% |
| COc1cc(NC(=O)CC2SC(NC3CCCCC3)=NC2=O)c(OC)cc1Cl (stereo not shown) [CBK059497] | 96.2% |
| Cc1ccc(NC(=O)CC2SC(NC3CCCCC3)=NC2=O)c(C)c1 (stereo not shown) [CBK059500] | 87.9% |
| O=C(CC1SC(NC2CCCCC2)=NC1=O)Nc1cc(Cl)ccc1Cl (stereo not shown) [CBK059501] | 91% |
| C[C@@H]1[C@H]2C[C@@H](C[C@H]1NC1=NC(=O)C(CC(=O)O)S1)C2(C)C (stereo partly shown) [CBK059514] | 93.8% |
| COc1ccc(N(C)C(=O)c2ccc(Cn3nc(NC(=O)Cc4ccc5c(c4)OCO5)c4ccccc43)cc2)cc1 [CBK059530] | 103% |
| Cc1ccnc2c1C(=O)C1(CC2)CCN(C(=O)Nc2ccc(F)cc2F)CC1 [CBK059553T] | 91.3% |
| O=C(NC(c1ccc(Cl)cc1)c1cnccn1)C1CCN(C(=O)c2ccccc2)CC1 (stereo not shown) [CBK059634] | 109% |
| COc1ccccc1C(NC(=O)C1CCN(C(=O)c2cccc(Cl)c2)CC1)c1ccccn1 (stereo not shown) [CBK059637] | 90.3% |
| CC(C)OC(=O)N1CCC(C(=O)NC(c2ccccc2)c2ccc3ccccc3n2)CC1 (stereo not shown) [CBK059642] | 106% |
| COc1cc(OC)nc(C(NC(=O)C2CCN(C(=O)c3ccccc3)CC2)c2ccccc2)n1 (stereo not shown) [CBK059650] | 99.7% |
| COC(=O)N1CCC(C(=O)NC(c2ccccc2)c2nc(OC)cc(OC)n2)CC1 (stereo not shown) [CBK059651] | 90.6% |
| CC(C)S(=O)(=O)N1CCC(C(=O)NC(c2ccccc2)c2ccc3ccccc3n2)CC1 (stereo not shown) [CBK059676] | 94.1% |
| O=C(NC(c1ccc(Cl)cc1)c1cccnc1)C1CCN(C(=O)C2CC2)CC1 (stereo not shown) [CBK059686] | 90.4% |
| C=CCOC(=O)N1CCC(C(=O)NC(c2ccccn2)c2ccccc2C)CC1 (stereo not shown) [CBK059689] | 94% |
| CS(=O)(=O)N1CCC(C(=O)NC(c2ccc(F)cc2)c2ccccn2)CC1 (stereo not shown) [CBK059696] | 94.9% |
| Cc1ccccc1C(NC(=O)C1CCN(S(=O)(=O)C(C)C)CC1)c1ccccn1 (stereo not shown) [CBK059711] | 104% |
| Cc1ccccc1C(NC(=O)C1CCN(C(=O)c2ccccc2)CC1)c1ccccn1 (stereo not shown) [CBK059720] | 94.5% |
| Cc1ccccc1C(NC(=O)C1CCN(C(=O)N(C)c2ccccc2)CC1)c1ccccn1 (stereo not shown) [CBK059721] | 88.7% |
| COc1ccc(C(NC(=O)C2CCN(C(=O)OCc3ccccc3)CC2)c2ccccc2C)cn1 (stereo not shown) [CBK059726] | 91.4% |
| COc1ccc(C(NC(=O)C2CCN(S(C)(=O)=O)CC2)c2ccccc2C)cn1 (stereo not shown) [CBK059738] | 104% |
| O=C(NC(c1ccccc1)c1ccco1)C1CCN(C(=O)c2cccs2)CC1 (stereo not shown) [CBK059854] | 82.4% |

| Structure (SMILES) | viability at 28.5 h, 10 µM |
| --- | --- |
| COC(=O)N1CCC(C(=O)NC(c2ccccc2)c2ncccc2C)CC1 (stereo not shown) [CBK059885] | 92.6% |
| O=C(NC(c1ccc(F)cc1)c1cnccn1)C1CCN(C(=O)c2ccco2)CC1 (stereo not shown) [CBK059956] | 94.3% |
| O=C(NC(c1ccc(F)cc1)c1cnccn1)C1CCN(S(=O)(=O)c2cccc(Cl)c2)CC1 (stereo not shown) [CBK060013] | 85.1% |
| CC(C)(C)C(=O)N1CCC(C(=O)NC(c2ccc3c(c2)OCO3)c2ccccn2)CC1 (stereo not shown) [CBK060074] | 110% |
| O=C(NC(c1ccc(Cl)cc1)c1ccsc1)C1CCN(S(=O)(=O)CC(F)(F)F)CC1 (stereo not shown) [CBK060088] | 89.1% |
| O=C(NC(c1ccccc1)c1ccccn1)C1CCN(C(=O)Oc2ccccc2)CC1 (stereo not shown) [CBK060105] | 96.9% |
| CC(=O)N1CCC(C(=O)N2CCC(C(=O)NC(c3ccccn3)c3cccs3)CC2)CC1 (stereo not shown) [CBK060118] | 95% |
| Cn1cnc(S(=O)(=O)N2CCC(C(=O)NC(c3ccccn3)c3cccs3)CC2)c1 (stereo not shown) [CBK060131] | 105% |
| Cc1ccc(C(=O)N2CCC(C(=O)NC(c3ccccc3)c3ccsc3)CC2)cc1 (stereo not shown) [CBK060154] | 109% |
| COCCOC(=O)N1CCC(C(=O)NC(c2ccccc2)c2ccsc2)CC1 (stereo not shown) [CBK060155] | 94.4% |
| COc1cc(OC)nc(C(NC(=O)C2CCN(C(=O)c3ccno3)CC2)c2ccc(Cl)cc2)n1 (stereo not shown) [CBK060169] | 115% |
| CN(C(=O)C1CCN(C(=O)c2ccoc2)CC1)C(c1ccc(F)cc1)c1ccccn1 (stereo not shown) [CBK060206] | 91.5% |
| Cc1ccccc1C(c1cnccn1)N(C)C(=O)C1CCN(C(=O)c2ccccc2)CC1 (stereo not shown) [CBK060208] | 94.4% |
| COc1cccc(C(c2ccccn2)N(C)C(=O)C2CCN(S(=O)(=O)c3c(C)noc3C)CC2)c1 (stereo not shown) [CBK060212] | 96.4% |
| Cc1ccc(S(=O)(=O)N2CCC(C(=O)NC(c3ccccc3C)c3ncccc3C)CC2)cc1 (stereo not shown) [CBK060249] | 94.3% |
| COc1ccc(C(c2ccccn2)N(C)C(=O)C2CCN(S(=O)(=O)C(C)C)CC2)cc1 (stereo not shown) [CBK060280] | 88.2% |
| COc1ccc(C(NC(=O)C2CCN(C(=O)NC(C)(C)C)CC2)c2ccccn2)cc1 (stereo not shown) [CBK060298] | 112% |
| O=C(NC(c1ccccc1)c1cccnc1)C1CCN(C(=O)NCCc2cccs2)CC1 (stereo not shown) [CBK060313] | 78.3% |
| O=C(NC(c1ccccc1)c1cccnc1)C1CCN(C(=O)NC2CCCCC2)CC1 (stereo not shown) [CBK060378] | 84% |
| Cc1ccccc1C(NC(=O)C1CCN(C(=O)NCc2ccccc2)CC1)c1ncccc1C (stereo not shown) [CBK060398] | 94.9% |
| O=C(NC(c1ccccc1)c1ccco1)C1CCN(C(=S)NCCc2ccccc2)CC1 (stereo not shown) [CBK060412] | 94.4% |
| CN(C(=O)C1CCN(C(=S)NCc2ccccc2)CC1)C(c1ccccc1)c1ccccn1 (stereo not shown) [CBK060476] | 91.7% |
| Cn1c(=O)n(CC(=O)N2CCC(C(=O)NC(c3ccccc3)c3ccccn3)CC2)c2ccccc21 (stereo not shown) [CBK060494] | 96% |
| Cc1cccnc1C(c1ccccc1)N(C)C(=O)C1CCN(C(=O)OCc2ccccc2)CC1 (stereo not shown) [CBK060522] | 93.9% |

Same assay, conditions: human, hela cells, % viability, bulk resorufin, single well

| Structure (SMILES) | viability at 28.5 h, 10 µM |
| --- | --- |
| COc1ccccc1NC(=O)N1CCC2(CC1)OCc1cc(-c3ccccc3)ccc1O2 [CBK060599] | 109% |
| Cc1noc(C)c1NC(=O)N1CCC2(CC1)OCc1cc(F)ccc1O2 [CBK060721] | 97.8% |
| O=C(Nc1cccc(Cl)c1)N1CCC2(CC1)OCc1cc(F)ccc1O2 [CBK060722] | 87.5% |
| CCNC(=O)N1CCC2(CC1)OCc1cc(-c3ccc(Cl)cc3)ccc1O2 [CBK060737] | 90.1% |
| COc1ccc2c(c1)COC1(CCN(C(=O)NC3CCCCC3)CC1)O2 [CBK060755] | 111% |
| O=C(NCCc1cccs1)N1CCC2(CC1)OCc1cc(F)ccc1O2 [CBK060769] | 98.3% |
| CSc1cc(C)c2c(c1)COC1(CCN(C(=O)Nc3cccs3)CC1)O2 [CBK060795] | 90.6% |
| COc1ccc2c(c1)COC1(CCN(C(=O)Nc3cccs3)CC1)O2 [CBK060803] | 105% |
| CSc1cc(C)c2c(c1)COC1(CCN(C(=O)COCC(=O)O)CC1)O2 [CBK060839] | 94.1% |
| CSc1cc(C)c2c(c1)COC1(CCN(C(=O)c3ccccc3C(=O)O)CC1)O2 [CBK060843] | 94.1% |
| COc1ccc2c(c1)COC1(CCN(C(=O)CC(C)(C)CC(=O)O)CC1)O2 [CBK060855] | 90.3% |
| O=C(O)COCC(=O)N1CCC2(CC1)OCc1cc(F)ccc1O2 [CBK060859] | 106% |
| O=C(O)c1ccccc1C(=O)N1CCC2(CC1)OCc1cc(F)ccc1O2 [CBK060863] | 109% |
| Cc1ccc(-c2ccc3c(c2)COC2(CCNCC2)O3)c(C)c1 [CBK060881] | 89.7% |
| CC(=O)N1CCC2(CC1)OCc1cc(-c3ccc(C)o3)ccc1O2 [CBK060889] | 87.1% |
| Fc1cc(F)cc(-c2ccc3c(c2)COC2(CCNCC2)O3)c1 [CBK060915] | 87.7% |
| c1cc2c(cc1-c1ccc3c(c1)COC1(CCNCC1)O3)CCO2 [CBK060920] | 108% |

| Structure (SMILES) | viability at 28.5 h, 10 µM |
| --- | --- |
| c1cc2c(cc1-c1ccc3c(c1)OCO3)COC1(CCNCC1)O2 [CBK060925] | 95.9% |
| c1ccc2c(-c3ccc4c(c3)COC3(CCNCC3)O4)cccc2c1 [CBK060951] | 92.5% |
| CC(=O)c1ccc(-c2ccc3c(c2)COC2(CCN(C(C)=O)CC2)O3)s1 [CBK060967] | 109% |
| CC(=O)N1CCC2(CC1)OCc1cc(-c3cccc4cccnc34)ccc1O2 [CBK060969] | 88.4% |
| CC(=O)N1CCC2(CC1)OCc1cc(-c3ccc(Cl)cc3)ccc1O2 [CBK060974] | 113% |
| CC(=O)N1CCC2(CC1)OCc1cc(-c3cnc4ccccc4c3)ccc1O2 [CBK060976] | 93.8% |
| CS(=O)(=O)c1cccc(-c2ccc3c(c2)COC2(CCNCC2)O3)c1 [CBK060990] | 94.4% |
| c1cc(-c2ccc3c(c2)COC2(CCNCC2)O3)c2cccnc2c1 [CBK060995] | 104% |
| CC(=O)N1CCC2(CC1)OCc1cc(-c3ccccc3C#N)ccc1O2 [CBK061006] | 100% |
| CN(C)c1ccc(C(=O)N2CCC3(CC2)OCc2cc(Cl)ccc2O3)cc1 [CBK061067] | 87.8% |
| CSc1cc(C)c2c(c1)COC1(CCN(C(=O)Cc3ccccc3)CC1)O2 [CBK061099] | 93.4% |
| CSc1cc(C)c2c(c1)COC1(CCN(C(=O)c3ccco3)CC1)O2 [CBK061106] | 92.6% |
| O=C1NC(=O)C(CC(=O)N2CCC3(CC2)OCc2cc(-c4ccccc4)ccc2O3)N1 (stereo not shown) [CBK061111] | 85.6% |
| CC(C)C(=O)N1CCC2(CC1)OCc1cc(Cl)ccc1O2 [CBK061121] | 89.6% |
| COc1cccc2c1OC1(CCN(C(=O)c3cccn3C)CC1)OC2 [CBK061166] | 85.1% |
| COc1cccc2c1OC1(CCN(C(=O)C3CCC3)CC1)OC2 [CBK061168] | 85.4% |
| O=C(c1ccoc1)N1CCC2(CC1)OCc1ccccc1O2 [CBK061234] | 94.7% |
